Assay results reported in patent US10206906B2, “Synergistic combination of a phenolic-rich maple syrup extract and an antibiotic” (priority 2015, dated 2019).
≈ marks a conversion by molar mass, not a printed value.

Legend:
P. mirabilis HI4320 [1] = assay: Checkerboard microdilution assay (growth inhibition synergy); type: cell-based, Proteus mirabilis; settings: ciprofloxacin/PRMSE combination; FIC of the labelled component
Description: (§1) The checkerboard microdilution assay is used for evaluation of in vitro antimicrobial synergy between two compounds (i.e., antibiotic/PRMSE, antibiotic/pure phenolic compound, and pure phenolic compounds with each other). Two-fold serial dilutions are prepared in MHB-II for each of the two compounds under study. The serial dilutions are then loaded into 96 well plates to achieve combinations having different concentrations of each of the two compounds. Each well is subsequently inoculated with 10^6 CFU mL^−1 of the desired bacterial strain and incubated at 37° C. for 18 h under static conditions. The Fractional Inhibitory Concentration Index (FICI) for each combination is calculated by using the following formula: FICcomponent 1=MICcomponent 1, in combination/MICcomponent 1,alone FICI=FICcomponent 1+FICcomponent 2
(§2) The FICIs are interpreted as follows: FICI of […] (synergy); 0.5<FICI ≤1 (no interaction/indifference); FICI of >4 (antagonism).

[2] = test system: P. aeruginosa PA14 infection; assay: Drosophila melanogaster (fruit fly) feeding infection assay; type: in vivo; settings: monotherapy at sub-MIC (PRMSE 6.25 mg mL^−1, ciprofloxacin 0.015 μg mL^−1)
Description: Mortality was scored daily for 14 days. […] Results represent measurements from experiments performed with duplicates, twice (*p<0.01, Log-rank Mantel-cox test).
In this infection assay, PRMSE was analyzed for its anti-infective activity. As well, antibiotic ciprofloxacin is analyzed in combination with PRMSE for its synergistic anti-infective interactions. Fruit flies (D. melanogaster) are infected orally in fly feeding assay as before (Lutter et al., 2008, Infect Immun., 76: 1877-1888), with some modifications. Briefly, flies are anesthetized under a gentle stream of carbon dioxide. Male flies (3- to 5-days-old) are starved of food and water for 5-6 h and separated into vials (10 per vial) containing 5 ml of 5% sucrose agar (sterile) without and with phenolic extract without and with antibiotic at sub-MICs and 2.3-cm filter paper disks (sterile) containing freshly grown bacterial culture suspension. To achieve this freshly grown culture, an overnight P. aeruginosa PA14 culture is inoculated in 6 mL TSB culture and incubated at 37° C. and 100 rpm until OD600=3.0. This culture is centrifuged at 12,000×g for 1 min and the resulting pellet resuspended in 150 μL of sterile 5% sucrose, without and with sub-MICs of phenolic extract or antibiotic. […] Post-infection mortality of flies is monitored daily for 14 days, with each treatment tested twice in duplicate.

P. aeruginosa PA14 [3] = assay: Survival of PA14 on sucrose filters during fly feeding assay; type: cell-based, Pseudomonas aeruginosa; settings: PRMSE 6.25 mg mL-1, ciprofloxacin 0.015 μg mL-1, mono- and combination; six days
Description: Total viable bacterial counts per filter were determined every second day for filters containing bacterial cells on sucrose agar. PA14 cells on filter were untreated or treated with PRMSE (6.25 mg mL-1) or ciprofloxacin (0.015 μg mL-1) alone and in combination. Average data represent data from experiment performed in triplicate and error bars represent S.D.
To address this possibility, the survival of PA14 on the paper discs without and with sub-MICs of PRMSE or antibiotic under the same conditions as the fly feeding assay is analyzed. Enumeration of viable bacteria on filters during the infection period is performed using separate test vials with different treatments inoculated with P. aeruginosa PA14 and inoculated control sucrose vials that are sampled on alternative days, up to 6 days during infection period. Briefly, filters from the test vials are removed in a sterile environment, placed in 50 mL polypropylene tube containing 5 mL of LB broth and vortexed for 30 s. This LB medium containing the sampled bacterial cells is serially diluted in phosphate buffer saline solution (pH 7.4), and 30 μL is plated onto Pseudomonas isolation agar (BD-Difco). Colonies are enumerated after the incubation at 37° C. for 24 h.

[4] = test system: P. aeruginosa PA14 infection; assay: Galleria mellonella larvae (wax moth) infection assay; type: in vivo; settings: monotherapy at sub-MIC (PRMSE 12.5 mg/mL, ciprofloxacin 0.03 μg/mL)
Description: Each data set represents one experiment with five larvae per condition in triplicate, the experiment repeated twice (*P<0.05, Mantel-cox test, n=6).
Briefly, PA14 culture grown overnight in TSB broth is diluted 1:100 in the same growth medium and further grown to OD600 nm of 1.27 at 37° C. under 100 rpm shaking. Freshly grown culture is centrifuged, and pellets are washed and resuspended in 10 mM MgSO4 to an OD600 of 0.1. To prepare the lethal dose of P. aeruginosa PA14 culture serial 10-fold dilutions are made in 10 mM MgSO4 supplemented with 1 mg/mL of ampicillin (adjusted to about 1-10^3 bacterial cells in 5 μL of suspension) containing or not containing PRMSE, without and with ciprofloxacin at sub-MICs. Ampicillin is used to prevent infection by bacterial contaminants on the surface of the larvae at a final concentration of approximately 5 ng per larva during survival phase. G. mellonella larvae are injected with 5 μL aliquot of each treatment solution using prewashed Hamilton syringe. Five larvae are injected per each treatment and the assay is performed in triplicate. PRMSE and ciprofloxacin at sub-MICs are assessed individually to monitor adverse effect on larvae survival. […] All injected larvae are incubated in Petri plates at 28° C. under the dark condition, and the number of dead larvae is scored daily after infection. […]

P. aeruginosa PA14 [5] = assay: Checkerboard microdilution assay (growth inhibition synergy); type: cell-based, Pseudomonas aeruginosa; settings: ciprofloxacin/PRMSE combination; FIC of the labelled component
Description: as §1, §2

P. aeruginosa PAO1 [6] = assay: as above; type: cell-based, Pseudomonas aeruginosa; settings: ciprofloxacin/PRMSE combination; FIC of the labelled component
Description: as §1, §2

E. coli CFT073 [7] = assay: Determination of minimum inhibitory concentration (MIC); type: cell-based; settings: Escherichia coli, CFT073; antibiotic alone; MHB-II, 37° C., 18 h; read-out: MIC
Description: (§3) A range of concentration of antibiotics, ciprofloxacin (0.0003-0.25 μg mL^−1) and carbenicillin (0.5-512 μg mL^−1), are chosen due to their known potency against all four bacterial strains. Dilutions are prepared in flat bottom, 96 well microtitre plates (Falcon™, Corning™, Fisher Scientific, ON, Canada). Each well of a microtitre plate is then inoculated with the desired bacterial strain (grown in MHB-II and diluted to […]) and the plate is incubated at 37° C. for 18 h under static conditions. Bacterial growth is assessed by (i) monitoring the optical density of the cell suspension in each well at 600 nm (OD600 nm), and (ii) the resazurin microtitre plate assay. In the resazurin microtitre plate assay, each well of a microtitre plate is supplemented with 20 μM resazurin, incubated in the dark for 20 min at room temperature, followed by fluorescence measurements at ex/em 570/590 nm using a TECAN Infinite M200 Pro microplate reader (Tecan Group Ltd., Switzerland). The lowest concentration of a compound able to prevent increase in OD600 nm and resazurin fluorescence intensity is recorded as the MIC for that compound.

P. aeruginosa PA14 [8] = assay: as above; type: cell-based; settings: Pseudomonas aeruginosa, PA14; antibiotic alone; MHB-II, 37° C., 18 h; read-out: MIC
Description: as §3

P. aeruginosa PAO1 [9] = assay: as above; type: cell-based; settings: Pseudomonas aeruginosa, PAO1; antibiotic alone; MHB-II, 37° C., 18 h; read-out: MIC
Description: as §3

P. mirabilis HI4320 [10] = assay: as above; type: cell-based; settings: Proteus mirabilis, HI4320; antibiotic alone; MHB-II, 37° C., 18 h; read-out: MIC
Description: as §3

E. coli CFT073 [11] = assay: Checkerboard microdilution assay (growth inhibition synergy); type: cell-based, Escherichia coli; settings: ciprofloxacin/PRMSE combination; FIC of the labelled component
Description: as §1, §2

P. aeruginosa PA14 lawn = assay: In vitro analysis of hemolymph recovered from treated G. mellonella larvae; design: species or system Galleria mellonella; settings: hemolymph recovered 3 h post-injection, spotted on PA14 lawn, 24 h at 37° C.
Description: Larvae were injected with PRMSE (mg/mL) or Cip (μg/mL) alone and in combination, and hemolymph recovered 3 h after treatment were spotted on Pseudomonas isolation agar plates previously inoculated with PA14 cells to produce a lawn of confluent growth. The plate was observed after 24 h of incubation at 37° C. The experiment was performed with three larvae per each condition in triplicate. S-control: saline control.
To rule out any growth-inhibitory effect of PRMSE on PA14 cells due to induction of the immune response, production of antimicrobial peptides or transformation of the extract into a toxic compound(s) in the larval hemolymph, an additional set of larvae are injected with 5 μL of PRMSE without and with ciprofloxacin (sub-MICs) or saline solution as a control. The larval hemolymph is recovered at 3 h after the treatment and 5 μL aliquot of each larval hemolymph sample is spotted on the Pseudomonas isolation agar (BD-Difco) plates previously inoculated with PA14 cells to produce a lawn of confluent growth. The appearance of growth inhibition halos is verified after 24 h of incubation at 37° C.

D. melanogaster flies = assay: D. melanogaster survival when fed extract or antibiotic individually; type: in vivo, Drosophila melanogaster; settings: PRMSE 6.25 mg/mL, ciprofloxacin 0.015 μg/mL, within 264 h
Description: As well, antibiotic ciprofloxacin is analyzed in combination with PRMSE for its synergistic anti-infective interactions. Fruit flies (D. melanogaster) are infected orally in fly feeding assay as before (Lutter et al., 2008, Infect Immun., 76: 1877-1888), with some modifications. Briefly, flies are anesthetized under a gentle stream of carbon dioxide. Male flies (3- to 5-days-old) are starved of food and water for 5-6 h and separated into vials (10 per vial) containing 5 ml of 5% sucrose agar (sterile) without and with phenolic extract without and with antibiotic at sub-MICs and 2.3-cm filter paper disks (sterile) containing freshly grown bacterial culture suspension. To achieve this freshly grown culture, an overnight P. aeruginosa PA14 culture is inoculated in 6 mL TSB culture and incubated at 37° C. and 100 rpm until OD600=3.0. This culture is centrifuged at 12,000×g for 1 min and the resulting pellet resuspended in 150 μL of sterile 5% sucrose, without and with sub-MICs of phenolic extract or antibiotic. […] Post-infection mortality of flies is monitored daily for 14 days, with each treatment tested twice in duplicate.

G. mellonella larvae = G. mellonella larvae survival after injection of extract or antibiotic alone; type: in vivo, Galleria mellonella; settings: injected alone; PRMSE 12.5 mg/mL, ciprofloxacin 0.03 μg/mL; within 72 h
Description: Each data set is representative of experiments with five larvae per condition in triplicate.
G. mellonella infection assay is performed as described previously with some modification (Jander et al., 2000, J Bacteriol., 182: 3843-3845). Briefly, PA14 culture grown overnight in TSB broth is diluted 1:100 in the same growth medium and further grown to OD600 nm of 1.27 at 37° C. under 100 rpm shaking. Freshly grown culture is centrifuged, and pellets are washed and resuspended in 10 mM MgSO4 to an OD600 of 0.1. […] Ampicillin is used to prevent infection by bacterial contaminants on the surface of the larvae at a final concentration of approximately 5 ng per larva during survival phase. G. mellonella larvae are injected with 5 μL aliquot of each treatment solution using prewashed Hamilton syringe. Five larvae are injected per each treatment and the assay is performed in triplicate. […] All injected larvae are incubated in Petri plates at 28° C. under the dark condition, and the number of dead larvae is scored daily after infection. […] A mock inoculation using prewashed Hamilton syringe is also performed in each experiment to monitor the killing due to physical injury or infection by pathogenic contaminants. […]

O=C(O)c1cn(C2CC2)c2cc(N3CCNCC3)c(F)cc2c1=O [ciprofloxacin, reference compound]
FIC (Fractional Inhibitory Concentration) (P. mirabilis HI4320 [1]): 0.02
protection of D. melanogaster against PA14 infection [2]: fails to protect
culturability of PA14 cells on filter paper discs (P. aeruginosa PA14 [3]): no significant difference
protection of G. mellonella larvae against PA14 infection [4]: fails to protect
FIC (Fractional Inhibitory Concentration) (P. aeruginosa PA14 [5]): 0.03
FIC (Fractional Inhibitory Concentration) (P. aeruginosa PAO1 [6]): 0.03
MIC (E. coli CFT073 [7]): 0.008 µg/mL (≈ 0.0241 µM)
MIC (P. aeruginosa PA14 [8]): 0.06 µg/mL (≈ 0.181 µM)
MIC (P. aeruginosa PAO1 [9]): 1 µg/mL (≈ 3.02 µM)
MIC (P. mirabilis HI4320 [10]): 0.016 µg/mL (≈ 0.0483 µM)
FIC (Fractional Inhibitory Concentration) (E. coli CFT073 [11]): 0.25
effect of recovered larval hemolymph on PA14 growth in vitro (P. aeruginosa PA14 lawn): no effect
killing effect on D. melanogaster flies (D. melanogaster flies): no killing effect
killing effect on G. mellonella larvae (G. mellonella larvae): no killing effect
